{"source": "patent US9809557B2", "about": "(priority 2011, dated 2017)", "key": {"[1]": {"assay": "Stability of a suspension of prodrug in 80% human synovial fluid pH 7.4, formation of ketorolac", "assay_type": "in vitro ADME", "conditions": "after 21 hours", "description": "(§1) The stability of a suspension of DPX-4-0001 in 80% human synovial fluid pH 7.4 (SF) from arthritis patients was investigated at 37° C. The reaction was initiated by adding 5 ml preheated SF to 2 mg DPX-4-0001. At appropriate time intervals, 400 μl samples were taken and centrifuged for 5 min at 13.000 rpm and 200 μl of the supernatant was deproteinised with 400 μl acetonitrile. After centrifugation for 4 min at 13000 rpm, the supernatant was analysed by HPLC for DPX-4-0001 as well as formed ketorolac. The HPLC method described in Example 26 was applied."}, "[2]": {"assay": "Solubility of the prodrugs in PBS (67 mM phosphate buffer pH 7.4)", "method": "The determination of the solubility of a prodrug at different pH values of interest according to the present invention is carried by adding excess solid prodrug to a container containing a buffer solution with well-defined pH. The mixture is rotated at constant temperature until an equilibrium between solid prodrug and prodrug in solution has established (that is until the prodrug concentration in the supernatant remains constant). At each measurement the pH of the supernatant is controlled and, if needed, adjusted to the desired pH.\nSuspensions of the prodrugs in 67 mM phosphate buffer pH 7.4 (PBS) were prepared by adding 10 mL PBS to approximately 5 mg prodrug. The suspensions were kept unstirred at 37° C. in an incubator hood. At appropriate time intervals over 23 days, about 500 μL samples were taken and after filtration (disposable syringe filters), the solutions were analyzed immediately by HPLC for parent drug and remaining prodrug. Quantitation of parent drug and prodrug was done from peak area measurements in relations to those of standards analysed by HPLC at the same conditions. […] For the diclofenac and ibuprofen prodrugs, the following method was used: Merck Hitachi L 6000 pump connected to Merck Hitachi 4250 UV detector. Reversed phase chromatography was performed using a C18 Gemini® RP column (150×4.6 mm, 5 μm particles) (Phenomenex, Torrance, Calif., USA) equipped with a SecurityGuard precolumn (Phenomenex, Torrance, Calif., USA). The flow rate was set at 1 mL/min and the column effluent was monitored at 230 nm. The mobile phase consisted of 35% (v/v) acetonitrile and 65% (v/v) of 0.1% (v/v) phosphoric acid pH 3.2. The retention times varied in the range of 3 to 30 min.\nFrom the observed relatively stable concentration of dissolved prodrugs measured in the suspensions after 8-9 day up to 23 days, the solubilities of the prodrugs (Sprodrug) were determined."}, "[3]": {"assay": "Stability of a suspension of DPX-4-0001 in 67 mM phosphate buffer pH 7.4 (comparison to SF)", "assay_type": "physicochemical", "conditions": "suspension in 67 mM phosphate buffer pH 7.4, 37° C.", "description": "as §1\nFor comparison, the stability of a suspension of DPX-4-0001 in 67 mM phosphate buffer pH 7.4 was investigated by the same procedure at 37° C. […] Since the synovial disappearance half-lives of small-molecule drugs are in the range 2-5 h, the concentration of the active agent in the joint space is determined by the prodrug properties (i) solubility, (ii) degree of protein binding, and (iii) rate of cleavage of the prodrug bond, as well as (iv) the administered dose."}, "[4]": {"assay": "Precipitation on addition of acidic prodrug solution to phosphate buffer pH 7.4", "assay_type": "physicochemical", "description": "At appropriate time intervals, samples were withdrawn and centrifuged for 5 min at 13,000 rpm and the supernatant was analysed by HPLC for DPX-4-0001 and formed ketorolac. The HPLC method described in Example 26 was applied. […] A slight increase in the ketorolac concentration is the result of pH dependent hydrolysis of the prodrug bond (FIG. 3).\nThe pH in the suspension was measured to 7.0."}, "pKa value": {"assay": "pKa value", "assay_type": "physicochemical"}, "[5]": {"assay": "Solubility at acidic pH, with and without DMA cosolvent", "assay_type": "physicochemical", "description": "A suspension of DPX-2-0007 (as hydrochloride salt) was formed by adding 30 mg to 4 mL demineralized water. After rotation of the suspension at 37° C. for 3 days, 1.0 mL sample was taken and after filtration (disposable syringe filters), the solution was diluted in methanol:water 1:1 and analyzed immediately by HPLC for prodrug. […] The pH in the solution was measured to 3.40. The following HPLC method was used: Merck Hitachi L 6200 pump connected to Merck Hitachi 4250 UV detector. Reversed phase chromatography was performed using a RP 18 Symmetry Shields® column (150×4.6 mm, 5 μm particles) equipped with a SecurityGuard precolumn (Phenomenex, Torrance, Calif., USA). […] The retention time of naproxen and DPX-2-0007 were 19 and 5.8 min, respectively.\nA suspension of DPX-2-0006 was formed by adding 10 mg to 3 mL demineralized water, 0.05 mL 0.100 M HCl was added to obtain a pH of 3. After rotation of the suspension at 37° C. for 1 days, 0.5 mL sample was taken and after filtration (disposable syringe filters), the solution was diluted in methanol:water 1:1 and analyzed immediately by HPLC for prodrug. […] The HPLC method described in Example 29 was applied and the retention time of DPX-2-0006 was 14 min, respectively. N,N-dimethylacetamide (DMA) was added stepwise to the acidic suspension of DPX-2-0006 and the amount of DPX-2-000 dissolved in the presence of various volumes of DMA was determined after 1-3 days rotation at 37° C. as described above."}}, "data": [{"smiles": "CN(C)c1ccc(CCOC(=O)C2CCn3c(C(=O)c4ccccc4)ccc32)cc1", "note": "(stereo not drawn) [DPX-4-0001, 4-(dimethylamino)phenethyl 5-benzoyl-2,3-dihydro-1H-pyrrolizine-1-carboxylate]", "values": [{"measurement": "concentration of dissolved prodrug in SF", "setting": "[1]; 80% human synovial fluid pH 7.4, 37° C.", "value": "about 2.2×10^−5 M"}, {"measurement": "conversion of the added amount of prodrug", "setting": "[1]; 80% human synovial fluid, 37° C.", "value": 28, "unit": "%"}, {"measurement": "solubility", "setting": "[2]; 67 mM phosphate buffer (PBS), pH 7.4, aqueous buffer, thermodynamic from solid", "value": "~0.05", "unit": "µg/mL"}, {"measurement": "solubility thermodynamic", "setting": "[2]; 67 mM phosphate buffer pH 7.4 (PBS), 37 °C, pH 7.4, aqueous buffer, thermodynamic from solid", "value": "0.1 ± 0.1", "unit": "µM"}, {"measurement": "Sprodrug ± SD", "setting": "[2]; PBS (67 mM phosphate buffer pH 7.4), 37° C.", "value": "0.05 ± 0.03", "unit": "µg/mL"}, {"measurement": "degradation of prodrug (to ketorolac) in phosphate buffer", "setting": "[3]", "value": "no significant degradation"}, {"measurement": "final prodrug concentration in phosphate buffer", "setting": "[3]", "value": "about 8×10^−7 M"}, {"measurement": "dissolved prodrug concentration after initial precipitation phase", "setting": "[4]; 67 mM phosphate buffer pH 7.4, over 25 h", "value": "low and fairly constant concentration"}, {"measurement": "precipitation after addition to buffer", "setting": "[4]; 300 μl of solution in 0.01 M HCl added to 5 ml 67 mM phosphate buffer pH 7.4, no esterases", "value": "a precipitation process was observed"}, {"measurement": "pKa", "setting": "pKa value", "value": "~5.2"}, {"measurement": "solubility", "setting": "[5]; buffer solution, pH 2.02, aqueous buffer, thermodynamic from solid, pH 2.02, hydrochloride salt", "value": 65, "unit": "µg/mL"}, {"measurement": "fold decrease in solubility from pH 2.02 to pH 7.4", "setting": "[5]; pH 2.02 vs pH 7.4", "value": 1300, "unit": "fold"}]}]}
